# Assay results taken from patent publication US9120820B2, “Fluorescent molecular probes for use in assays that measure test compound competitive binding with SAM-utilizing proteins” (CAYMAN CHEMICAL COMPANY, INCORPORATED, priority 2011, dated 2015).
# Target: T1, G9a (Homo sapiens, UniProt Q96KQ7)
# T1 construct: purchased Cayman 49010353
# T1 sequence (Q96KQ7 1-1210): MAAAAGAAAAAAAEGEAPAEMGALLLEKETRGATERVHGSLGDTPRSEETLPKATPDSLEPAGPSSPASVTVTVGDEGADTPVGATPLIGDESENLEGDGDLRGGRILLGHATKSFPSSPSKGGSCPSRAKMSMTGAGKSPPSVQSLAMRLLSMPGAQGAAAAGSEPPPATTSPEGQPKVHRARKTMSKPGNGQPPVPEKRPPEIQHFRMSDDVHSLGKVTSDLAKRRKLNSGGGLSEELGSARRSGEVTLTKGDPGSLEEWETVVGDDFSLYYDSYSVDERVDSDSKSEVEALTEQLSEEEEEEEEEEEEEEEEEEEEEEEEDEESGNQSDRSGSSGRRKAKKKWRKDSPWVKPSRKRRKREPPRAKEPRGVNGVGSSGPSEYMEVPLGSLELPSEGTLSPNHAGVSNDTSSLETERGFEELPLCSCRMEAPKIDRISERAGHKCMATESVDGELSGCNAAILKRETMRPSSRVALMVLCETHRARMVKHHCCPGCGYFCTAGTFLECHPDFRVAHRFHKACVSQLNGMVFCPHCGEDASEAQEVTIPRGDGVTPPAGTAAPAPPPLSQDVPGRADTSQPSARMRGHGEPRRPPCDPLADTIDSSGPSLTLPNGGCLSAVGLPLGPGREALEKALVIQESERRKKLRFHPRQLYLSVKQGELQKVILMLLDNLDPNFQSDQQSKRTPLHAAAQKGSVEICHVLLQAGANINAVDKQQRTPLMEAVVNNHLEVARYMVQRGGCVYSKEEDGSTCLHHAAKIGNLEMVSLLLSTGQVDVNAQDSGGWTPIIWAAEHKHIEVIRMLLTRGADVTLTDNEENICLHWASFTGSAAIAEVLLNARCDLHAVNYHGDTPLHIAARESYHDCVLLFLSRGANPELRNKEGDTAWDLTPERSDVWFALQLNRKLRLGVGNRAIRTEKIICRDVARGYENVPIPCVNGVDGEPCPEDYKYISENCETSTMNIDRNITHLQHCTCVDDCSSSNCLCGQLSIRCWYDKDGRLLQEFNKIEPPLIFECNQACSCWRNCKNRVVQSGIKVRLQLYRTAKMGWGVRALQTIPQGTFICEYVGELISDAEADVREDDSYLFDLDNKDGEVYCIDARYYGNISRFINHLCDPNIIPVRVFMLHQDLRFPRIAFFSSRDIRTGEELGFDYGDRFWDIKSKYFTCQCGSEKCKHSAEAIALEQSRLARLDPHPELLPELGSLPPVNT
# Test: Radiometric methyltransferase assay, G9a
# Assay type: biochemical
# Settings: G9a 200 nM; compound 10 μM, 1 μM, or 0.1 μM; FIG. 13
# Protocol: Reagents: Compound 16A was prepared by the method described in Example 4 and illustrated in FIG. 5. The Compounds 20A-iv and 20A-iii were prepared according to methods described in Example 6 and illustrated in FIG. 7. Enzymes were obtained from the Cayman Catalog with the exception of PRMT4 and PRMT6, which were produced in baculovirus and purified to near homogeneity using Ni-affinity chromatography. Human core histones were purified from HeLa nuclear pellet per the method of Coté et al. S-adenosylmethionine (SAM) was obtained from Sigma-Aldrich (Cat #A7007) and S-[methyl-3H]-SAM was obtained from Perkin-Elmer ([…]). Methods: […] To this was added enzyme diluted to provide a final assay concentration (GLP: 10 nM; PRMT1: 100 nM; SET7/9: 120 nM; PRDM9: 120 nM; PRMT4: 150 nM; PRMT6: 120 nM; G9a: 200 nM) and the compound was allowed to preincubate for 10 minutes at room temperature. […] Samples were mixed immediately after quenching and transferred to a 96-well GFC Uni-Filter microtiter filter plate (Perkin Elmer, Cat#6005174) that contained 50 μl of 20% TCA. Samples were allowed to precipitate for at least 5 minutes at room temperature. The samples were filtered onto the GFC membrane and washed four times with 100 μl of 10% TCA and once with 100 μl of 95% EtOH. To each well was added 25 μl of MicroScint-20 (Perkin-Elmer Cat#6013621) and samples were analyzed using a TopCount NXT microplate scintillation counter. The experiment was performed one time in duplicate for all compound concentrations tested and in triplicate for the vehicle and no enzyme controls. All data was analyzed in GraphPad Prism (v. 5.04).
row,SMILES,inhibition of enzymatic activity
1,"CSC[C@H]1O[C@@H](n2cnc3c(N)nc(NCCNC(=O)OC(C)(C)C)nc32)[C@H](O)[C@@H]1O [Compound 16A, tert-butyl (2-((6-amino-9-((2R,3R,4S,5S)-3,4-dihydroxy-5-((methylthio)methyl)tetrahydrofuran-2-yl)-9H-purin-2-yl)amino)ethyl)carbamate]",inhibits
2,"CCNC(=O)[C@H]1O[C@@H](n2cnc3c(N)nc(Cl)nc32)[C@H](O)[C@@H]1O [Compound 20A-iii, 2-chloroadenosine-5′-N-ethylcarboxamide]",did not show appreciable inhibition
3,"CCNC[C@H]1O[C@@H](n2cnc3c(N)nc(Cl)nc32)[C@H](O)[C@@H]1O [Compound 20A-iv, 2-chloroadenosine-5′-N-ethylamine]",did not show appreciable inhibition
